Measured values taken from US4309559A, “Sulphonamides useful as pesticides” (FBC Limited, priority 1977, dated 1982).

What was measured:
Assay type in all cases: in vivo
[1] = test system: Wheat (Triticum aestivum); experiment: Post-emergence foliar spray of monocotyledons, wheat; conditions: foliar spray 2.8 kg/ha, 14 days, 0=no effect, 100=complete kill
Procedure: (§1) Seeds of the monocotyledon species listed below were sown in anodised aluminium pans, 19 cm long×9.5 cm wide×5.0 cm deep, containing John Innes I potting compost. They were then watered and placed in a controlled environment room (22° C.; 65-85% relative humidity; 14 hours per day artificial illumination at 17,000 lux). 14 days after sowing, the seedlings were given a foliar spray of the compound of Example 44, formulated as an aqueous suspension together with 2000 ppm of the wetting agent Lissapol NX. The dosage rate was adjusted to be 2.8 kg active ingredient in 450 liters per hectare. After a further 14 days in the controlled environment room, the plants were visually assessed for any growth regulatory or herbicidal effect. All differences from an untreated control were scored on a scale from 0-100 where 0 signifies no effect and 100 signifies complete kill.
(§2) The compounds listed below were tested according to the procedure of Example 66 but including rice (Oryza sativa) as an additional test species.

Barley (Hordeum vulgare) = experiment: Post-emergence foliar spray of monocotyledons, barley; conditions: foliar spray 2.8 kg/ha, 14 days, 0=no effect, 100=complete kill
Procedure: as §1, §2

[2] = test system: Barnyardgrass (Echinochloa crus-galli); experiment: Post-emergence foliar spray of monocotyledons, barnyardgrass; conditions: foliar spray 2.8 kg/ha, 14 days, 0=no effect, 100=complete kill
Procedure: as §1, §2

rice (Oryza sativa) = experiment: Post-emergence foliar spray of monocotyledons, rice; conditions: foliar spray 2.8 kg/ha, 14 days, 0=no effect, 100=complete kill
Procedure: as §1, §2

Cotton [3] = experiment: Soil incorporation (I), cotton; conditions: 21 days, 0=no effect, 100=complete suppression
Excerpt: (§3) Each of the compounds listed below was formulated as: […]
(§4) (I) an attaclay/sand dust and incorporated in John Innes I potting compost at a rate equivalent to 6.5 and 3.25 parts per million weight/volume of active ingredient to soil and placed in anodised aluminium pans, 19 cm long×9.5 cm wide×5.0 cm high. This is approximately equivalent to a surface application of 2.8 and 1.4 kg active ingredient per hectare cultivated to a depth of 5 cm. Seeds of the species listed below were sown in the treated soil, one species per pan, watered and placed in a controlled environment room (22° C.; 65-85% relative humidity and 14 hours artificial illumination at 17,000 lux) for 21 days.
(§5) The plants were then visually assessed for any growth regulatory or herbicidal effects. All differences from an untreated control were scored on a scale from 0-100, where 0 signifies no effect and 100 signifies complete suppression.
(§6) The results are shown in the following table where I stands for soil incorporation and II for surface spray.

Tomato [4] = experiment: Soil incorporation (I), tomato; conditions: 21 days, 0=no effect, 100=complete suppression
Excerpt: as §3, §4, §5, §6

Wheat [5] = experiment: Soil incorporation (I), wheat; conditions: 21 days, 0=no effect, 100=complete suppression
Excerpt: as §3, §4, §5, §6

Barley [6] = experiment: Soil incorporation (I), barley; conditions: 21 days, 0=no effect, 100=complete suppression
Excerpt: as §3, §4, §5, §6

Barnyard Grass [7] = experiment: Soil incorporation (I), barnyard grass; conditions: 21 days, 0=no effect, 100=complete suppression
Excerpt: as §3, §4, §5, §6

Rice [8] = experiment: Soil incorporation (I), rice; conditions: 21 days, 0=no effect, 100=complete suppression
Excerpt: as §3, §4, §5, §6

Carrot [9] = experiment: Soil incorporation (I), carrot; conditions: 21 days, 0=no effect, 100=complete suppression
Excerpt: as §3, §4, §5, §6

Cotton [10] = experiment: Surface spray (II), cotton; conditions: 21 days, 0=no effect, 100=complete suppression
Excerpt: as §3
(§7) (II) An aqueous suspension together with 1000 ppm of the wetting agent Lissapol NX. The surfaces of an additional set of pans with seeds already sown were then sprayed with 2.8 or 1.4 kg/ha in 450 liters/hectare, and the pans kept in the controlled environment room for 21 days.
as §5, §6

Tomato [11] = experiment: Surface spray (II), tomato; conditions: 21 days, 0=no effect, 100=complete suppression
Excerpt: as §3, §7, §5, §6

Wheat [12] = experiment: Surface spray (II), wheat; conditions: 21 days, 0=no effect, 100=complete suppression
Excerpt: as §3, §7, §5, §6

Barley [13] = experiment: Surface spray (II), barley; conditions: 21 days, 0=no effect, 100=complete suppression
Excerpt: as §3, §7, §5, §6

Barnyard Grass [14] = experiment: Surface spray (II), barnyard grass; conditions: 21 days, 0=no effect, 100=complete suppression
Excerpt: as §3, §7, §5, §6

Rice [15] = experiment: Surface spray (II), rice; conditions: 21 days, 0=no effect, 100=complete suppression
Excerpt: as §3, §7, §5, §6

Carrot [16] = experiment: Surface spray (II), carrot; conditions: 21 days, 0=no effect, 100=complete suppression
Excerpt: as §3, §7, §5, §6

CS(=O)(=O)N(CC(N)=S)c1ccc(Cl)c(Cl)c1 [Example 85, N-(thiocarbamoylmethyl)-3,4-dichloromethanesulphonanilide]
growth regulatory or herbicidal effect score [1]: 0 | growth regulatory or herbicidal effect score (Barley (Hordeum vulgare)): 0 | growth regulatory or herbicidal effect score [2]: 90 | growth regulatory or herbicidal effect score (rice (Oryza sativa)): 0 | growth regulatory or herbicidal effect score (Cotton [3]; I soil incorporation 3.25 ppm): 0 | growth regulatory or herbicidal effect score (Cotton [3]; I soil incorporation 6.5 ppm): 0 | growth regulatory or herbicidal effect score (Tomato [4]; I soil incorporation 3.25 ppm): 0 | growth regulatory or herbicidal effect score (Tomato [4]; I soil incorporation 6.5 ppm): 0 | growth regulatory or herbicidal effect score (Wheat [5]; I soil incorporation 3.25 ppm): 0 | growth regulatory or herbicidal effect score (Wheat [5]; I soil incorporation 6.5 ppm): 0 | growth regulatory or herbicidal effect score (Barley [6]; I soil incorporation 3.25 ppm): 0 | growth regulatory or herbicidal effect score (Barley [6]; I soil incorporation 6.5 ppm): 0 | growth regulatory or herbicidal effect score (Barnyard Grass [7]; I soil incorporation 3.25 ppm): 90 | growth regulatory or herbicidal effect score (Barnyard Grass [7]; I soil incorporation 6.5 ppm): 90 | growth regulatory or herbicidal effect score (Rice [8]; I soil incorporation 3.25 ppm): 0 | growth regulatory or herbicidal effect score (Rice [8]; I soil incorporation 6.5 ppm): 0 | growth regulatory or herbicidal effect score (Carrot [9]; I soil incorporation 3.25 ppm): 0 | growth regulatory or herbicidal effect score (Carrot [9]; I soil incorporation 6.5 ppm): 0 | growth regulatory or herbicidal effect score (Cotton [10]; row 3.25 ppm (1.4 kg/ha)): 0 | growth regulatory or herbicidal effect score (Cotton [10]; row 6.5 ppm (2.8 kg/ha)): 0 | growth regulatory or herbicidal effect score (Tomato [11]; row 3.25 ppm (1.4 kg/ha)): 0 | growth regulatory or herbicidal effect score (Tomato [11]; row 6.5 ppm (2.8 kg/ha)): 0 | growth regulatory or herbicidal effect score (Wheat [12]; row 3.25 ppm (1.4 kg/ha)): 0 | growth regulatory or herbicidal effect score (Wheat [12]; row 6.5 ppm (2.8 kg/ha)): 0 | growth regulatory or herbicidal effect score (Barley [13]; row 3.25 ppm (1.4 kg/ha)): 0 | growth regulatory or herbicidal effect score (Barley [13]; row 6.5 ppm (2.8 kg/ha)): 0 | growth regulatory or herbicidal effect score (Barnyard Grass [14]; row 3.25 ppm (1.4 kg/ha)): 90 | growth regulatory or herbicidal effect score (Barnyard Grass [14]; row 6.5 ppm (2.8 kg/ha)): 100 | growth regulatory or herbicidal effect score (Rice [15]; row 3.25 ppm (1.4 kg/ha)): 0 | growth regulatory or herbicidal effect score (Rice [15]; row 6.5 ppm (2.8 kg/ha)): 0 | growth regulatory or herbicidal effect score (Carrot [16]; row 3.25 ppm (1.4 kg/ha)): 0 | growth regulatory or herbicidal effect score (Carrot [16]; row 6.5 ppm (2.8 kg/ha)): 0

CCS(=O)(=O)N(CC(N)=S)c1ccc(Cl)c(Cl)c1 [Example 156]
growth regulatory or herbicidal effect score [1]: 0 | growth regulatory or herbicidal effect score (Barley (Hordeum vulgare)): 0 | growth regulatory or herbicidal effect score [2]: 90 | growth regulatory or herbicidal effect score (rice (Oryza sativa)): 0 | growth regulatory or herbicidal effect score (Cotton [3]; I soil incorporation 3.25 ppm): 0 | growth regulatory or herbicidal effect score (Cotton [3]; I soil incorporation 6.5 ppm): 0 | growth regulatory or herbicidal effect score (Tomato [4]; I soil incorporation 3.25 ppm): 0 | growth regulatory or herbicidal effect score (Tomato [4]; I soil incorporation 6.5 ppm): 0 | growth regulatory or herbicidal effect score (Wheat [5]; I soil incorporation 3.25 ppm): 0 | growth regulatory or herbicidal effect score (Wheat [5]; I soil incorporation 6.5 ppm): 0 | growth regulatory or herbicidal effect score (Barley [6]; I soil incorporation 3.25 ppm): 0 | growth regulatory or herbicidal effect score (Barley [6]; I soil incorporation 6.5 ppm): 0 | growth regulatory or herbicidal effect score (Barnyard Grass [7]; I soil incorporation 3.25 ppm): 70 | growth regulatory or herbicidal effect score (Barnyard Grass [7]; I soil incorporation 6.5 ppm): 90 | growth regulatory or herbicidal effect score (Rice [8]; I soil incorporation 3.25 ppm): 0 | growth regulatory or herbicidal effect score (Rice [8]; I soil incorporation 6.5 ppm): 0 | growth regulatory or herbicidal effect score (Cotton [10]; row 3.25 ppm (1.4 kg/ha)): 0 | growth regulatory or herbicidal effect score (Cotton [10]; row 6.5 ppm (2.8 kg/ha)): 0 | growth regulatory or herbicidal effect score (Tomato [11]; row 3.25 ppm (1.4 kg/ha)): 0 | growth regulatory or herbicidal effect score (Tomato [11]; row 6.5 ppm (2.8 kg/ha)): 0 | growth regulatory or herbicidal effect score (Wheat [12]; row 3.25 ppm (1.4 kg/ha)): 0 | growth regulatory or herbicidal effect score (Wheat [12]; row 6.5 ppm (2.8 kg/ha)): 0 | growth regulatory or herbicidal effect score (Barley [13]; row 3.25 ppm (1.4 kg/ha)): 0 | growth regulatory or herbicidal effect score (Barley [13]; row 6.5 ppm (2.8 kg/ha)): 0 | growth regulatory or herbicidal effect score (Barnyard Grass [14]; row 3.25 ppm (1.4 kg/ha)): 80 | growth regulatory or herbicidal effect score (Barnyard Grass [14]; row 6.5 ppm (2.8 kg/ha)): 100 | growth regulatory or herbicidal effect score (Rice [15]; row 3.25 ppm (1.4 kg/ha)): 0 | growth regulatory or herbicidal effect score (Rice [15]; row 6.5 ppm (2.8 kg/ha)): 0
